{"source": "paper PMC8113459", "about": "“Selective inhibition of cullin 3 neddylation through covalent targeting DCN1 protects mice from acetaminophen-induced liver toxicity” (Nature Communications, 2021)", "system": "mice", "test": "14-day toxicity study in mice", "assay_type": "in vivo, mouse", "conditions": "for whole animal: body weight of individual male mouse, in g (unit assumed)", "method": "We evaluated DI-1859 for its potential toxicity in immunocompetent mice with daily, 50 mg/kg, intraperitoneal (IP) dosing for 14 consecutive days (Supplementary Table 3).\nSupplementary Table 3. Overview Toxicity Study design DI-1859 study.\nGroup # # of Mice Drug Vol./ Test Article Treatment Diluent\n(male/female) Route mouse dose Schedule", "key": {"[1]": {"conditions": "Clin Chem, individual male mouse, 50 mg/kg, 14 day, vehicle 20% PCP, listed as DI-1589, 50 mg/kg, in U/L (unit assumed)"}, "[2]": {"conditions": "Hemavet Values, individual male mouse, 50 mg/kg, 14 day, vehicle 20% PCP, listed as DI-1589, 50 mg/kg"}, "[3]": {"conditions": "mice, 50 mg/kg IP daily for 14 days"}, "[4]": {"conditions": "mice, 50 mg/kg IP qD(1-14), mean ± s.d., n=5"}}, "note": "Several values for one entry are separate records, joined by “and”; a condition that tells them apart may be missing. Identical values can stand only once.", "data": [{"smiles": "C=C(CN(C)C)C(=O)NC[C@@H](NC(=O)[C@H](Cc1nc2ccc(C(C)C)cc2s1)NC(=O)CC)C1CCCCC1", "note": "[DI-1859]", "values": [{"measurement": "% wt change (average)", "setting": "50 mg/kg IP qD(1-14), Treat Day 2", "result": -3.1, "unit": "%"}, {"measurement": "% wt change (average)", "setting": "50 mg/kg IP qD(1-14), Treat Day 3", "result": -3.0, "unit": "%"}, {"measurement": "ave. wgt. (mouse body weight)", "setting": "50 mg/kg IP qD(1-14), Treat Day 3, n=5", "result": 25.5, "unit": "gm"}, {"measurement": "% wt change (average)", "setting": "50 mg/kg IP qD(1-14), Treat Day 4", "result": -3.1, "unit": "%"}, {"measurement": "ave. wgt. (mouse body weight)", "setting": "50 mg/kg IP qD(1-14), Treat Day 4, n=5", "result": 25.5, "unit": "gm"}, {"measurement": "% wt change (average)", "setting": "50 mg/kg IP qD(1-14), Treat Day 5", "result": -0.9, "unit": "%"}, {"measurement": "ave. wgt. (mouse body weight)", "setting": "50 mg/kg IP qD(1-14), Treat Day 5, n=5", "result": 26.0, "unit": "gm"}, {"measurement": "% wt change (average)", "setting": "50 mg/kg IP qD(1-14), Treat Day 6", "result": -1.3, "unit": "%"}, {"measurement": "ave. wgt. (mouse body weight)", "setting": "50 mg/kg IP qD(1-14), Treat Day 6, n=5", "result": 25.9, "unit": "gm"}, {"measurement": "% wt change (average)", "setting": "50 mg/kg IP qD(1-14), Treat Day 7", "result": -1.6, "unit": "%"}, {"measurement": "ave. wgt. (mouse body weight)", "setting": "50 mg/kg IP qD(1-14), Treat Day 7, n=5", "result": 25.8, "unit": "gm"}, {"measurement": "% wt change (average)", "setting": "50 mg/kg IP qD(1-14), Treat Day 8", "result": -2.1, "unit": "%"}, {"measurement": "ave. wgt. (mouse body weight)", "setting": "50 mg/kg IP qD(1-14), Treat Day 8, n=5", "result": 25.7, "unit": "gm"}, {"measurement": "% wt change (average)", "setting": "50 mg/kg IP qD(1-14), Treat Day 9", "result": -1.9, "unit": "%"}, {"measurement": "ave. wgt. (mouse body weight)", "setting": "50 mg/kg IP qD(1-14), Treat Day 9, n=5", "result": 25.8, "unit": "gm"}, {"measurement": "% wt change (average)", "setting": "50 mg/kg IP qD(1-14), Treat Day 10", "result": -0.8, "unit": "%"}, {"measurement": "ave. wgt. (mouse body weight)", "setting": "50 mg/kg IP qD(1-14), Treat Day 10, n=5", "result": 26.0, "unit": "gm"}, {"measurement": "% wt change (average)", "setting": "50 mg/kg IP qD(1-14), Treat Day 11", "result": -3.6, "unit": "%"}, {"measurement": "ave. wgt. (mouse body weight)", "setting": "50 mg/kg IP qD(1-14), Treat Day 11, n=5", "result": 25.3, "unit": "gm"}, {"measurement": "% wt change (average)", "setting": "50 mg/kg IP qD(1-14), Treat Day 12", "result": -2.5, "unit": "%"}, {"measurement": "ave. wgt. (mouse body weight)", "setting": "50 mg/kg IP qD(1-14), Treat Day 12, n=5", "result": 25.6, "unit": "gm"}, {"measurement": "% wt change (average)", "setting": "50 mg/kg IP qD(1-14), Treat Day 13", "result": -2.7, "unit": "%"}, {"measurement": "ave. wgt. (mouse body weight)", "setting": "50 mg/kg IP qD(1-14), Treat Day 13, n=5", "result": 25.6, "unit": "gm"}, {"measurement": "% wt change (average)", "setting": "50 mg/kg IP qD(1-14), Treat Day 14", "result": -4.9, "unit": "%"}, {"measurement": "ave. wgt. (mouse body weight)", "setting": "50 mg/kg IP qD(1-14), Treat Day 14, n=5", "result": 25.0, "unit": "gm"}, {"measurement": "ALT", "setting": "[1]", "result": "34 and 26 and 24 and 31"}, {"measurement": "AST", "setting": "[1]", "result": "57 and 46 and 61 and 55 and 35"}, {"measurement": "PDW", "setting": "Hemavet Values, individual male mouse, 50 mg/kg, 14 day, vehicle 20% PCP", "result": 0, "unit": "%"}, {"measurement": "BA#", "setting": "[2]", "result": "0.01 K/uL and 0.09 K/uL and 0.05 K/uL and 0.13 K/uL"}, {"measurement": "BA%", "setting": "[2]", "result": "0.11% and 0.74% and 1.42% and 0.22% and 1.34%"}, {"measurement": "EO#", "setting": "[2]", "result": "0.05 K/uL and 0.22 K/uL and 0.08 K/uL and 0.02 K/uL and 0.52 K/uL"}, {"measurement": "EO%", "setting": "[2]", "result": "0.65% and 1.86% and 2.37% and 0.68% and 5.39%"}, {"measurement": "HB", "setting": "[2]", "result": "12.9 g/dL and 12.5 g/dL and 10.2 g/dL and 11.4 g/dL and 11.5 g/dL"}, {"measurement": "HCT", "setting": "[2]", "result": "37.7% and 38.6% and 31.1% and 36.4% and 34.1%"}, {"measurement": "LY#", "setting": "[2]", "result": "5.23 K/uL and 7.93 K/uL and 2.4 K/uL and 1.63 K/uL and 5.65 K/uL"}, {"measurement": "LY%", "setting": "[2]", "result": "69.39% and 68.59% and 72.26% and 71.36% and 58.57%"}, {"measurement": "MCH", "setting": "[2]", "result": "14.5 pg and 13.7 pg and 14.3 pg"}, {"measurement": "MCHC", "setting": "[2]", "result": "34.2 g/dL and 32.4 g/dL and 32.8 g/dL and 31.3 g/dL and 33.7 g/dL"}, {"measurement": "MCV", "setting": "[2]", "result": "42.5 fL and 42.4 fL and 41.9 fL and 43.7 fL"}, {"measurement": "MO#", "setting": "[2]", "result": "0.42 K/uL and 0.63 K/uL and 0.21 K/uL and 0.22 K/uL"}, {"measurement": "MO%", "setting": "[2]", "result": "5.58% and 5.49% and 6.31% and 9.5% and 6.52%"}, {"measurement": "MPV", "setting": "[2]", "result": "4.9 fL and 4.7 fL and 5.2 fL and 5.7 fL and 4.8 fL"}, {"measurement": "NE#", "setting": "[2]", "result": "1.83 K/uL and 2.69 K/uL and 0.59 K/uL and 0.42 K/uL and 2.72 K/uL"}, {"measurement": "NE%", "setting": "[2]", "result": "24.26% and 23.31% and 17.63% and 18.24% and 28.19%"}, {"measurement": "PLT", "setting": "[2]", "result": "900 K/uL and 866 K/uL and 228 K/uL and 177 K/uL and 757 K/uL"}, {"measurement": "RBC", "setting": "[2]", "result": "8.88 M/uL and 9.11 M/uL and 7.43 M/uL and 8.33 M/uL and 8.03 M/uL"}, {"measurement": "RDW", "setting": "[2]", "result": "17.1% and 16.5% and 17.2% and 17.7%"}, {"measurement": "WBC", "setting": "[2]", "result": "7.54 K/uL and 11.56 K/uL and 3.32 K/uL and 2.28 K/uL and 9.64 K/uL"}, {"measurement": "whole animal", "setting": "50 mg/kg, 14 day, vehicle 20% PCP", "result": 24.600}, {"measurement": "whole animal", "setting": "50 mg/kg, 14 day, vehicle 20% PCP, listed as DI-1589, 50 mg/kg", "result": "25.300 and 25.200 and 26.400 and 27.400"}, {"measurement": "alterations in hematologic parameters", "setting": "[3]", "result": "no meaningful alterations"}, {"measurement": "changes in body weights or organ weights", "setting": "[3]", "result": "no changes"}, {"measurement": "tolerability", "setting": "[3]", "result": "well tolerated"}, {"measurement": "Absolute organ weight, Adrenal glands (paired)", "setting": "[4]", "result": "0.006 ± 0.002", "unit": "g"}, {"measurement": "Absolute organ weight, Brain", "setting": "[4]", "result": "0.454 ± 0.009", "unit": "g"}, {"measurement": "Absolute organ weight, Epididymis (paired)", "setting": "[4]", "result": "0.089 ± 0.011", "unit": "g"}, {"measurement": "Absolute organ weight, Heart", "setting": "[4]", "result": "0.117 ± 0.009", "unit": "g"}, {"measurement": "Absolute organ weight, L kidney", "setting": "[4]", "result": "0.182 ± 0.013", "unit": "g"}, {"measurement": "Absolute organ weight, Liver", "setting": "[4]", "result": "1.596 ± 0.098", "unit": "g"}, {"measurement": "Absolute organ weight, R kidney", "setting": "[4]", "result": "0.200 ± 0.007", "unit": "g"}, {"measurement": "Absolute organ weight, Spleen", "setting": "[4]", "result": "0.073 ± 0.013", "unit": "g"}, {"measurement": "Absolute organ weight, Testes (paired)", "setting": "[4]", "result": "0.222 ± 0.017", "unit": "g"}, {"measurement": "Absolute organ weight, Thymus", "setting": "[4]", "result": "0.040 ± 0.027", "unit": "g"}, {"measurement": "Body weights", "setting": "[4]", "result": "25.78 ± 1.11", "unit": "g"}, {"measurement": "Hematocrit", "setting": "[4]", "result": "35.58 ± 3.02", "unit": "%"}, {"measurement": "Hemoglobin", "setting": "[4]", "result": "11.70 ± 1.06", "unit": "g/dL"}, {"measurement": "MCH", "setting": "[4]", "result": "13.98 ± 0.39", "unit": "pg"}, {"measurement": "MCHC", "setting": "[4]", "result": "32.88 ± 1.13", "unit": "g/dL"}, {"measurement": "MCV", "setting": "[4]", "result": "42.60 ± 0.66", "unit": "fL"}, {"measurement": "MPV", "setting": "[4]", "result": "5.06 ± 0.40", "unit": "fL"}, {"measurement": "Platelets", "setting": "[4]", "result": "585.6 ± 354.1 10e3/uL"}]}]}
